Tested on: antenna of a male adult of peach fruit moth
Test: GC-EAD (electroantennographic detection) of the extract of peach fruit moth
Set-up: species or system Carposina sasakii
Conditions: GC-EAD of pheromone gland extract; male adult 3 to 5 days after eclosion
Protocol: An EAD chart of the extract of peach fruit moth (Carposina sasakii) is shown in FIG. 1A and a GC chart of the extract is shown in FIG. 1B. […] In FIG. 1B, the peaks for components (5) and (6) were at the detection limit or less so that they were not detected.
In this time zone, the pheromone gland was excised from a virgin female adult (2 to 3 days old) under a microscope and immersed in n-hexane for 30 minutes. Then the insect body tissues were removed from the extraction liquid by filtration to produce an extract of peach fruit moth.
A GC-EAD (Gas Chromatography-Electroantennographic Detection) chart of the above extract of peach fruit moth is shown in FIG. 1.
Structural analyses of dimethyl disulfide (DMDS) adducts was conducted for each of the unsaturated bond sites of the monoene components. Finally, it was found in comparison with the retention times and mass spectra of the corresponding synthesized products that the components (1) to (6) were docosane, tricosane, (Z)-7-tricosene, (Z)-5-pentacosene, (Z)-12-nonadecen-9-one and (Z)-7-heneicosen-11-one, respectively, and the mixing weight ratio thereof was 6:341:432:36:2:8 with respect to 100 of (Z)-13-eicosen-10-one. FIGS. 2 to 7 show the mass spectra of the components (1) to (6) in the extract of peach fruit moth, while FIGS. 8 to 13 show the mass spectra of the commercial products and synthesized compounds.

## CCCCCC/C=C\CCC(=O)CCCCCCCCC [(Z)-13-eicosen-10-one]
  potential response of the antenna of a male adult (EAD): showed a potential response

— patent US20170079267A1, “SEX PHEROMONE COMPOSITION OF PEACH FRUIT MOTH AND ATTRACTANT COMPRISING THE SAME” (SHIN-ETSU CHEMICAL CO., LTD., priority 2011, published 2017)
